{
  "source": "patent US10953010B2",
  "about": "(HAMRA INVEST AB, priority 2016, dated 2021)",
  "key": {"clinical": {"experiment": "clinical", "settings": "human, plasma, po"}, "[1]": {"settings": "oral"}, "[2]": {"test_system": "patients with acute ischemic stroke treated with intravenous thrombolysis", "settings": "Imatinib treated patients", "procedure": "(§1) Occurrence and severity of hemorrhagic transformation, intracerebral hemorrhage and cerebral edema on post-treatment computer tomography (CT) or magnetic resonance imaging (MR) were among secondary outcomes. Others were neurological outcome at 2 hours, 24 hours and 7 days after initiation of intravenous thrombolysis, functional outcome at 3 months and infarct volume at 7 days. Infarct volume evaluation will be addressed in a following publication.\nClinical assessments, including determination of the NIHSS score were performed before intravenous thrombolysis and start of study treatment (baseline), 2 hours (day 0), day 1 and then daily until day 7. A final NIHSS score was included in the 3 months follow up examination. Assessment of any adverse event was done daily from day 0 to day 7, and finally at 3 months. CT scan was performed at baseline, 24 hours (accepted interval 22-36 hours) and, optionally, at 7 days, MRI at 24 h (accepted interval as for CT) and at 7 days. […] At three months functional status was evaluated using the modified Rankin Scale (mRS) score. […]\nWhen looking at separate time points, linear regression with robust standard errors was used, while adjusting for thrombectomy. […] The association between treatment groups and functional independence was analyzed using odds ratios. […]"}, "[3]": {"test_system": "patients with acute ischemic stroke treated with intravenous thrombolysis", "experiment": "Hemorrhagic transformations and parenchymatous hemorrhages on post-treatment CT or MR", "assay_type": "in vivo, human", "procedure": "as §1"}, "[4]": {"test_system": "patients with acute ischemic stroke treated with intravenous thrombolysis", "experiment": "Neurological outcome (NIHSS score)", "assay_type": "in vivo, human", "settings": "for mean lowering of the NIHSS score, estimate in brackets / mean lowering (improvement) of the NIHSS score: after adjustment for thrombectomy", "procedure": "as §1\nClinical assessments, including determination of the NIHSS score were performed before intravenous thrombolysis and start of study treatment (baseline), 2 hours (day 0), day 1 and then daily until day 7. A final NIHSS score was included in the 3 months follow up examination. Assessment of any adverse event was done daily from day 0 to day 7, and finally at 3 months. CT scan was performed at baseline, 24 hours (accepted interval 22-36 hours) and, optionally, at 7 days, MRI at 24 h (accepted interval as for CT) and at 7 days. Definitions of hemorrhagic transformations, parenchymatous hemorrhages and edema are described in an earlier publication R1 and also listed in Table 1. At three months functional status was evaluated using the modified Rankin Scale (mRS) score. The three months follow up examinations were performed blindly at a different hospital than the one responsible for the acute treatment.\nWhen looking at separate time points, linear regression with robust standard errors was used, while adjusting for thrombectomy. […] The choice of using AR1 correlation was made by comparing the Akaike Information Criterion to a model without AR1 correlation. […] The association between treatment groups and functional independence was analyzed using odds ratios. The statistical software Stata v.13 was used."}, "[5]": {"test_system": "patients with acute ischemic stroke treated with intravenous thrombolysis", "experiment": "Cerebral edema on post-treatment CT or MR", "assay_type": "in vivo, human", "procedure": "as §1"}, "Bcr-Abl tyrosine kinase": {"test_system": "Bcr-Abl tyrosine kinase", "settings": "more potent than Imatinib; cited from earlier work"}},
  "note": "Like-named read-outs stand apart in the source and are kept apart here.",
  "data": [
    {"smiles": "Cc1ccc(NC(=O)c2ccc(CN3CCN(C)CC3)cc2)cc1Nc1nccc(-c2cccnc2)n1", "note": "[Imatinib]", "values": [
      {"measurement": "concentration at 3 h", "setting": "clinical; 400 mg", "result": 996, "unit": "ng/mL"},
      {"measurement": "concentration at 3 h", "setting": "clinical; 600 mg", "result": 1570, "unit": "ng/mL"},
      {"measurement": "concentration at 3 h", "setting": "clinical; 800 mg", "result": 1730, "unit": "ng/mL"},
      {"measurement": "mean plasma concentration of Imatinib, Day 0-Day 6", "setting": "[1]; 400 mg daily", "result": 530, "unit": "ng/mL"},
      {"measurement": "mean plasma concentration of Imatinib, Day 0-Day 6", "setting": "[1]; 600 mg daily", "result": 1094, "unit": "ng/mL"},
      {"measurement": "mean plasma concentration of Imatinib, Day 0-Day 6", "setting": "[1]; 800 mg daily", "result": 2054, "unit": "ng/mL"},
      {"measurement": "severe disability (5 points on mRS) or death (6 points)", "setting": "[2]", "result": "did not occur"},
      {"measurement": "number of hemorrhagic transformations", "setting": "[3]; high dose", "result": 3},
      {"measurement": "parenchymatous hemorrhages, PH1 type", "setting": "[3]; high dose", "result": "one"},
      {"measurement": "remote parenchymatous hemorrhages of the milder grade (PHr1)", "setting": "[3]; high dose group", "result": 3},
      {"measurement": "hemorrhages reported", "setting": "[3]; initiation of Imatinib within 5 hours after stroke onset, high dose group, of 5 treated", "result": "no hemorrhages"},
      {"measurement": "hemorrhages reported", "setting": "[3]; initiation of Imatinib within 5 hours after stroke onset, low dose group, of 8 treated", "result": 4},
      {"measurement": "hemorrhages reported", "setting": "[3]; initiation of Imatinib within 5 hours after stroke onset, medium dose, of to treated", "result": 5},
      {"measurement": "number of hemorrhagic transformations", "setting": "[3]; low dose group", "result": 6},
      {"measurement": "remote parenchymatous hemorrhages of the milder grade (PHr1)", "setting": "[3]; low dose group", "result": "one"},
      {"measurement": "number of hemorrhagic transformations", "setting": "[3]; medium dose", "result": 7},
      {"measurement": "parenchymatous hemorrhages, PH2", "setting": "[3]; medium dose", "result": "one"},
      {"measurement": "remote parenchymatous hemorrhages of the milder grade (PHr1)", "setting": "[3]; medium dose group", "result": "one"},
      {"measurement": "hemorrhages reported", "setting": "[3]; reperfusion treatment completed within 4.5 hours, high dose group, of 7 treated", "result": "no hemorrhages"},
      {"measurement": "hemorrhages reported", "setting": "[3]; reperfusion treatment completed within 4.5 hours, low dose, of 9", "result": 5},
      {"measurement": "hemorrhages reported", "setting": "[3]; reperfusion treatment completed within 4.5 hours, medium dose, of 11 treated", "result": 6},
      {"measurement": "improvement on the NIHSS per 100 mg Imatinib", "setting": "[4]; after adjustment for the effect of thrombectomy", "result": 0.6, "unit": "points"},
      {"measurement": "lowering of the adjusted mean NIHSS score compared to control, estimate in brackets", "setting": "[4]; high dose, 3 months", "result": "−4.81"},
      {"measurement": "lowering of the adjusted mean NIHSS score compared to control", "setting": "[4]; high dose, 3 months, p<0.019", "result": 5, "unit": "points"},
      {"measurement": "lowering of the adjusted mean NIHSS score compared to control, estimate in brackets", "setting": "[4]; high dose, 7 days", "result": "−5.68"},
      {"measurement": "lowering of the adjusted mean NIHSS score compared to control", "setting": "[4]; high dose, 7 days, p<0.019", "result": 6, "unit": "points"},
      {"measurement": "mean lowering of the NIHSS score, estimate in brackets", "setting": "[4]; high dose", "result": "−4.94"},
      {"measurement": "mean lowering (improvement) of the NIHSS score", "setting": "[4]; high dose, p<0.012", "result": 5, "unit": "points"},
      {"measurement": "lowering of the adjusted mean NIHSS score compared to control", "setting": "[4]; high dose, day 1, p<0.018", "result": 5, "unit": "points"},
      {"measurement": "mean lowering of the NIHSS score, estimate in brackets", "setting": "[4]; low dose", "result": "−2.30"},
      {"measurement": "mean lowering (improvement) of the NIHSS score", "setting": "[4]; low dose, p<0.259", "result": 2, "unit": "points"},
      {"measurement": "mean lowering of the NIHSS score, estimate in brackets", "setting": "[4]; medium dose", "result": "−3.05"},
      {"measurement": "mean lowering (improvement) of the NIHSS score", "setting": "[4]; medium dose, p<0.106", "result": 3, "unit": "points"},
      {"measurement": "neurological outcome", "setting": "[4]; treatment with Imatinib vs control", "result": "significantly improved neurological outcome"},
      {"measurement": "number of cerebral edema (CED 1-3)", "setting": "[5]; high dose", "result": "to"},
      {"measurement": "patients with the mildest form of edema, CED 1", "setting": "[5]; high dose", "result": "to"},
      {"measurement": "patients with CED 1 at follow up", "setting": "[5]; initiation of Imatinib within 5 hours after stroke onset, high dose group, of 5 patients", "result": 2},
      {"measurement": "patients with CED 1 or 2", "setting": "[5]; initiation of Imatinib within 5 hours after stroke onset, low dose, of 8 patients", "result": 4},
      {"measurement": "patients with CED 1 or 2", "setting": "[5]; initiation of Imatinib within 5 hours after stroke onset, medium dose, of to patients", "result": 5},
      {"measurement": "number of cerebral edema (CED 1-3)", "setting": "[5]; low dose", "result": 6},
      {"measurement": "patients with the mildest form of edema, CED 1", "setting": "[5]; low dose", "result": 4},
      {"measurement": "moderately severe edema (CED-2)", "setting": "[5]; low dose group", "result": "Two"},
      {"measurement": "moderately severe edema (CED-2)", "setting": "[5]; medium dose", "result": 1},
      {"measurement": "number of cerebral edema (CED 1-3)", "setting": "[5]; medium dose", "result": 8},
      {"measurement": "patients with the mildest form of edema, CED 1", "setting": "[5]; medium dose", "result": 7},
      {"measurement": "patients with CED 1", "setting": "[5]; reperfusion treatment completed within 4.5 hours, high dose group, of 7 patients", "result": 4},
      {"measurement": "patients with CED 1 or 2", "setting": "[5]; reperfusion treatment completed within 4.5 hours, low dose, of nine", "result": 4},
      {"measurement": "patients with CED 1 or 2", "setting": "[5]; reperfusion treatment completed within 4.5 hours, medium dose, of 11", "result": 6}
    ]},
    {"smiles": "Cc1cn(-c2cc(NC(=O)c3ccc(C)c(Nc4nccc(-c5cccnc5)n4)c3)cc(C(F)(F)F)c2)cn1", "note": "[Nilotinib]", "values": [
      {"measurement": "potency relative to Imatinib in inhibiting Bcr-Abl tyrosine kinase activity", "setting": "Bcr-Abl tyrosine kinase", "result": "10-30 fold"}
    ]}
  ]
}
